The record followed here is patent US10709724B2, “Methods of treating mitochondrial dysfunction” (Ecole Polytechnique Federale de Lausanne (EPFL), priority 2011, dated 2020).

For one test, the system named is C57Bl/6J mice. As to the kind of experiment: NAD+ content in mouse tissues after one week of supplemented chow. Type of test: in vivo. Particulars: 400 mg/kg/day in chow. The procedure: Animal Experiments. […] In other animal experiments, 8 weeks-old male C57Bl/6J mice were purchased from Charles River and powder chow (D12450B) and high fat (D12492) diets were from Research Diets Inc (New Brunswick, N.J., USA). 80 ml of water per kg of powder CD were used to make food pellets. 40 ml of water per kg of powder HFD were used to make food pellets. […] Mice were housed separately, had ad libitum access to water and food and were kept under a 12 h dark-light cycle. Mice were fed with homemade pellets from 10 weeks of age. […] All animal experiments were carried out according to local national and EU ethical guidelines. To monitor body weight, mice were weighed and the food consumption was measured each week on the same day. In case of PJ34 treatment, mice received each 12 h (at 7:00 and 19:00) 10 mg/kg PJ34 by intraperitoneal injection for 5 continuous days. In all studies animals were killed (at 14:00) either after CO2 inhalation or cervical dislocation after 6 h of fasting (starting at 8:00), and tissues were collected and processed as specified below. […] Plasma insulin and was determined in heparinized plasma samples using specific ELISA kits (Mercodia). Blood samples were collected in heparinized tubes and plasma was isolated after centrifugation. Plasma parameters were measured using a Cobas c111 (Roche Diagnostics). […] The respiratory quotient was the ratio of CO2 production over O2 consumption. During actimetry, beamline crossings were summarized each 15 minutes.
NAD^+ NAM Determination. NAD^+ levels in cultured cells were determined using a commercial kit (Enzychrom™, BioAssays Systems, CA). […] 70 L of ice-cold 7% perchloric acid was then added and the sample was vortexed and sonicated three times, then centrifuged. Clear supernatant was removed and neutralized by additions of 3 M NaOH and 1 M phosphate buffer (pH=9), then centrifuged. Clear supernatant was injected onto HPLC C-18 column with 20 mM ammonium acetate eluent to separate NAD^+ and NAM from other cellular components, NAD^+ and NAM peaks (260 nm absorbance) were collected. Collections were lyophilized to dryness and subjected to MALDI-TOF analysis. […] Corrections were applied for isotopic abundance.

In another test the test system is C57Bl/6J male mice. Briefly: PJ34 treatment of mice (5 days). It is filed as in vivo. To be noted: 10 mg/kg i.p. twice a day. Here is the method:
Animal Experiments. Male PARP-1^+/+ and PARP-1^−/− mice on a pure C57Bl/6J background (Menissier-de Murcia et al., 1997) were used. Mice were housed separately, had ad libitum access to water and standard rodent chow (10 kcal % of fat, Safe, Augy, France) or to a high calorie, high fat diet (60 kcal % of fat, Research. Diets, New Brunswick, N.J., USA), and were kept under a 12 h dark-light cycle. In other animal experiments, 8 weeks-old male C57Bl/6J mice were purchased from Charles River and powder chow (D12450B) and high fat (D12492) diets were from Research Diets Inc (New Brunswick, N.J., USA). 80 ml of water per kg of powder CD were used to make food pellets. 40 ml of water per kg of powder HFD were used to make food pellets. For NR, NMN and NA supplemented diets, the appropriate amount of these compounds was added to the water used to create the pellets, taking into account the differences in the daily intake of each diet. Mice were housed separately, had ad libitum access to water and food and were kept under a 12 h dark-light cycle. Mice were fed with homemade pellets from 10 weeks of age. To make the pellets, the powder food was mixed with water (vehicle) or with NR. All animal experiments were carried out according to local national and EU ethical guidelines. To monitor body weight, mice were weighed and the food consumption was measured each week on the same day. In case of PJ34 treatment, mice received each 12 h (at 7:00 and 19:00) 10 mg/kg PJ34 by intraperitoneal injection for 5 continuous days. In all studies animals were killed (at 14:00) either after CO2 inhalation or cervical dislocation after 6 h of fasting (starting at 8:00), and tissues were collected and processed as specified below. Oral glucose tolerance test, intraperitoneal insulin tolerance test, free fatty acid (FFA) and triglycerides were determined as described (Lagouge et al., 2006). Plasma insulin and was determined in heparinized plasma samples using specific ELISA kits (Mercodia). Blood samples were collected in heparinized tubes and plasma was isolated after centrifugation. Plasma parameters were measured using a Cobas c111 (Roche Diagnostics). Thermoadaptation was performed as described (Lagouge et al., 2006). We measured O2 consumption, CO2 production, and spontaneous locomotor activity in an open circuit indirect calorimetry system (Sabre systems, Las Vegas, Nev., USA) over 24-48 has described (Dali-Youcef et al., 2007; Lagouge et al., 2006; Watanabe et al., 2006). […] The respiratory quotient was the ratio of CO2 production over O2 consumption. During actimetry, beamline crossings were summarized each 15 minutes. […] Euglycemic-hyperinsulinemic clamps were performed in PARP-1^−/− and ^+/+ male mice (n=4 mice per genotype; age=4 months) exactly as previously described (Feige et al, 2008).
mRNA and mtDNA Analysis. Total RNA was prepared using TRIzol (Invitrogen) according to the manufacturer's instructions. RNA was treated with DNase, and 2 μg of RNA was used for reverse transcription (RT). cDNA was purified on QIAquick PCR cleanup columns (Qiagen, Valencia, Calif., USA). 50× diluted cDNA was used for RT-quantitative PCR (RT-VCR) VCR) reactions (Bai et al., 2007). The RT-qPCR reactions were performed using the Light-Cycler system (Roche Applied Science) and a qPCR Supermix (Qiagen) with the primers for mice summarized in Table 1 and 4, and with the primers for worms summarized on Table 7. mtDNA quantification was performed as described (Lagouge et al., 2006) with the primers indicated in Table 2 and 5.
Immunoprecipitation, SDS-PAGE, Western Blotting. Cells were lysed in lysis buffer (50 mM Tris, […], EDTA 1 mM, NP40 1%, nicotinamide 5 mM, Na-butyrate 1 in M, protease inhibitors pH7.4). Proteins were separated by SDS-PAGE and transferred onto nitrocellulose membranes. The origin of the primary and secondary antibodies used can be found as supplemental experimental procedures. […]

Take `NC(=O)c1ccc[n+]([C@@H]2O[C@H](CO)[C@@H](O)[C@H]2O)c1` [NR, nicotinamide riboside]: in the test on C57Bl/6J mice, the “NAD+ levels in liver” value is “increased NAD^+ levels in liver” and the “mitochondrial NAD+ levels in mouse liver” value was “mitochondrial NAD^+ levels were enhanced”. For the same molecule, the “muscle NAD+ content” value in the test on C57Bl/6J mice (quadriceps) is recorded as “significantly enhanced muscle NAD^+ content”.
As to `CN(C)CC(=O)Nc1ccc2[nH]c(=O)c3ccccc3c2c1` [PJ34], in the test on C57Bl/6J male mice, the “Dio2 mRNA in BAT” value is “significantly induced”; the “Myoglobin mRNA levels in muscle” value was “increase in Myoglobin mRNA levels”; the “NAD+ levels in BAT and muscle” value is given as “edged up in PJ34-treated animals, even though the increase was only statistically significant in muscle”; the “PARP activity in BAT and muscle” value is listed as “robustly decrease PARP activity”. Also, in the test with C57Bl/6J male mice, the “PGC-1α acetylation levels in BAT and muscle” value is reported as “reduced PGC-1α acetylation levels”; the “mitochondrial gene expression in BAT and muscle (Ndufa2, Ndufa5, UCP2, UCP3)” value is “tendency to a higher expression of a number of mitochondrial genes”. The molecule further came in with a triglycerides with C57Bl/6J male mice (vehicle 1.21±0.08, p=0.08) of 1.11 ± 0.04 mM. In the test on C57Bl/6J male mice (vehicle 1.59±0.06, p=0.03), the “free fatty acid levels” value came to 1.44±0.03 mEq/L. The molecule further registered a blood glucose in the test with C57Bl/6J male mice (vehicle 9.94±0.28, p=0.05) of 9.19 ± 0.58 mM.
